In patent US11845744B2, “Methods and compositions for modulating splicing” (Skyhawk Therapeutics, Inc., priority 2019, dated 2023):

Key:
SMN protein = SMN protein assay (Mesoscale Discovery) in SMA patient fibroblasts (GM03813); assay type: cell-based, human; details: 48 hours, MSD assay, read-out: SMN EC50 (SMN Protein Potency)
Description: Compounds were tested on spinal muscular atrophy (SMA) patient fibroblasts (GM03813, Coriell) at doses ranging from 2.5 μM to 0.6 nM. 7000 cells/well were seeded in 96-well plates. Compounds were incubated for 48 hours and the cells were lysed with 100 μL of lysis buffer. 20 μL of lysate was used for SMN protein measurement by Mesoscale Discovery (MSD) assay developed by PharmOptima (Michigan). A standard curve prepared with SMN protein ranging from 1 μg/ml to 19.5 pg/ml was used in each MSD plate to calculate the absolute SMN protein amount in each sample.

[1] = tested on: MDR1-MDCK cell monolayers; assay: MDCK-MDR1 permeability assay for blood-brain-barrier penetration potential (Papp, efflux ratio); assay type: in vitro ADME; details: 5 μM; for MDCK-MDR1: % Recov A-B: apical to basolateral; for MDCK-MDR1: % Recov A-B / MDCK-MDR1: % Recov B-A: 120 minutes, pH 7.4; for MDCK-MDR1: % Recov B-A: basolateral to apical
Description: (§1) The dosing solution concentration was 5 μM of test article in the assay buffer. […] Each determination was performed in duplicate. […] All samples were assayed by LC-MS/MS using electrospray ionization. Analytical conditions are outlined below.
(§2) The apparent permeability (Papp) and percent recovery were calculated as follows: […]

MDR1 = assay: as above; assay type: in vitro ADME; details: dog; for Papp A→B at 120 min, 5 μM: MDCK-MDR1, apical to basolateral; for Papp A→B at 120 min, 5 μM / Papp B→A at 120 min, 5 μM: pH 7.4; for Papp B→A at 120 min, 5 μM: MDCK-MDR1, basolateral to apical; for efflux ratio at 120 min, 5 μM: MDCK-MDR1, pH 7.4, Efflux ratio = Papp (B-to-A)/Papp (A-to-B)
Description: as §1, §2

SMN = assay: Quantitative splicing assay (SMN) in SMA patient fibroblasts (GM03813), qPCR of SMN FL and SMN Δ7; assay type: cell-based; details: Homo sapiens, Fibroblast, 24 h, SMN FL mRNA by qPCR
Description: Spinal muscular atrophy (SMA) patient fibroblasts (GM03813, Coriell) were plated in 96-well plates at 50,000 cells/well. Immediately after plating, cells were dosed with compounds for 24 h at concentrations ranging from 2.5 μM to 0.6 nM (0.1% DMSO). Treated cells were lysed and cDNA synthesized using the Fast Advanced Cells-to-Ct kit (ThermoFisher A35378) according to the manufacturer's instructions. 2 μL of each cDNA were used in qPCR reactions. The qPCR reactions were prepared in 384-well plates in 10 μL volume, using TaqMan™ Fast Advanced Master Mix (ThermoFisher; 4444965) with primers and probes shown in the table below. Reactions were run in a Quant Studio 6 qPCR instrument with default settings.

CN(c1cnc(-c2ccc(-c3ccn(C)c(=O)c3)cc2O)nn1)[C@@H]1C[C@H]2CC[C@H](N2)[C@@H]1F (single isomer, unassigned) [Compound 1A]
EC50 (SMN protein): 500 to 10000 nM | MDCK-MDR1: % Recov A-B [1]: 81% | MDCK-MDR1: % Recov B-A [1]: 94% | Papp A→B at 120 min, 5 μM (MDR1): 0.12 ×10⁻⁶ cm/s | Papp B→A at 120 min, 5 μM (MDR1): 37.8 ×10⁻⁶ cm/s | efflux ratio at 120 min, 5 μM (MDR1): 309

CN(c1cnc(-c2ccc(-c3ccn(C)c(=O)c3)cc2O)nn1)[C@H]1C[C@@H]2CC[C@@H](N2)[C@H]1F (single isomer, unassigned) [Compound 1B]
EC50 (SMN protein): 500 to 10000 nM | MDCK-MDR1: % Recov A-B [1]: 95% | MDCK-MDR1: % Recov B-A [1]: 84% | Papp A→B at 120 min, 5 μM (MDR1): 0.3 ×10⁻⁶ cm/s | Papp B→A at 120 min, 5 μM (MDR1): 46.4 ×10⁻⁶ cm/s | efflux ratio at 120 min, 5 μM (MDR1): 152

CN(c1cnc(-c2ccc(-c3cn[nH]c3)cc2O)nn1)[C@@H]1C[C@H]2CC[C@H](N2)[C@@H]1F (single isomer, unassigned) [Compound 2A]
EC50 (SMN protein): 500 to 10000 nM | MDCK-MDR1: % Recov A-B [1]: 78% | MDCK-MDR1: % Recov B-A [1]: 74% | Papp A→B at 120 min, 5 μM (MDR1): 2.05 ×10⁻⁶ cm/s | Papp B→A at 120 min, 5 μM (MDR1): 39.8 ×10⁻⁶ cm/s | efflux ratio at 120 min, 5 μM (MDR1): 19

CN(c1cnc(-c2ccc(-c3cn[nH]c3)cc2O)nn1)[C@H]1C[C@@H]2CC[C@@H](N2)[C@H]1F (single isomer, unassigned) [Compound 2B]
EC50 (SMN protein): 0.01 to 15 nM | MDCK-MDR1: % Recov A-B [1]: 93% | MDCK-MDR1: % Recov B-A [1]: 96% | Papp A→B at 120 min, 5 μM (MDR1): 2.26 ×10⁻⁶ cm/s | Papp B→A at 120 min, 5 μM (MDR1): 53.4 ×10⁻⁶ cm/s | efflux ratio at 120 min, 5 μM (MDR1): 24 | EC50 (SMN): 0.01 to 15 nM

CN(c1cnc(-c2ccc(-c3cnn(C)c3)cc2O)nn1)[C@@H]1C[C@H]2CC[C@H](N2)[C@@H]1F (single isomer, unassigned) [Compound 3A]
EC50 (SMN protein): 15 to 50 nM | MDCK-MDR1: % Recov A-B [1]: 67% | MDCK-MDR1: % Recov B-A [1]: 72% | Papp A→B at 120 min, 5 μM (MDR1): 5.37 ×10⁻⁶ cm/s | Papp B→A at 120 min, 5 μM (MDR1): 37.3 ×10⁻⁶ cm/s | efflux ratio at 120 min, 5 μM (MDR1): 7 | EC50 (SMN): 0.01 to 15 nM

CN(c1cnc(-c2ccc(-c3cnn(C)c3)cc2O)nn1)[C@H]1C[C@@H]2CC[C@@H](N2)[C@H]1F (single isomer, unassigned) [Compound 3B]
EC50 (SMN protein): 0.01 to 15 nM | MDCK-MDR1: % Recov A-B [1]: 62% | MDCK-MDR1: % Recov B-A [1]: 76% | Papp A→B at 120 min, 5 μM (MDR1): 4.3 ×10⁻⁶ cm/s | Papp B→A at 120 min, 5 μM (MDR1): 37.8 ×10⁻⁶ cm/s | efflux ratio at 120 min, 5 μM (MDR1): 9 | EC50 (SMN): 0.01 to 15 nM

CN(C)C(=O)c1cc2cc(O)c(-c3ncc(N(C)[C@@H]4C[C@H]5CC[C@H](N5)[C@@H]4F)nn3)cc2o1 (single isomer, unassigned) [Compound 4A]
MDCK-MDR1: % Recov A-B [1]: 89% | MDCK-MDR1: % Recov B-A [1]: 96% | MDCK-MDR1: Efflux ([1]; Efflux ratio = Papp (B-to-A)/Papp (A-to-B)): 26

CN(C)C(=O)c1cc2cc(O)c(-c3ncc(N(C)[C@H]4C[C@@H]5CC[C@@H](N5)[C@H]4F)nn3)cc2o1 (single isomer, unassigned) [Compound 4B]
MDCK-MDR1: % Recov A-B [1]: 91% | MDCK-MDR1: % Recov B-A [1]: 101% | Papp A→B at 120 min, 5 μM (MDR1): 3.05 ×10⁻⁶ cm/s | Papp B→A at 120 min, 5 μM (MDR1): 50 ×10⁻⁶ cm/s | efflux ratio at 120 min, 5 μM (MDR1): 16

Cn1cc(-c2ccc(-c3ncc(O[C@@H]4C[C@H]5CCC[C@H](N5)[C@@H]4F)nn3)c(O)c2)cn1 (single isomer, unassigned) [Compound 5A]
EC50 (SMN protein): 500 to 10000 nM | MDCK-MDR1: % Recov A-B [1]: 69% | MDCK-MDR1: % Recov B-A [1]: 79% | Papp A→B at 120 min, 5 μM (MDR1): 9 ×10⁻⁶ cm/s | Papp B→A at 120 min, 5 μM (MDR1): 30.9 ×10⁻⁶ cm/s | efflux ratio at 120 min, 5 μM (MDR1): 3

Cn1cc(-c2ccc(-c3ncc(O[C@H]4C[C@@H]5CCC[C@@H](N5)[C@H]4F)nn3)c(O)c2)cn1 (single isomer, unassigned) [Compound 5B]
EC50 (SMN protein): 100 to 500 nM | MDCK-MDR1: % Recov A-B [1]: 83% | MDCK-MDR1: % Recov B-A [1]: 90% | Papp A→B at 120 min, 5 μM (MDR1): 10.2 ×10⁻⁶ cm/s | Papp B→A at 120 min, 5 μM (MDR1): 43.7 ×10⁻⁶ cm/s | efflux ratio at 120 min, 5 μM (MDR1): 4
